How the values were obtained:
KB [1] = experiment: Growth inhibition of human KB-7D cells overexpressing multidrug resistant associated protein after 72 hrs by methylene blue dye assay; assay type: functional, cell-based
KB [2] = experiment: Growth inhibition of human Pgp170 overexpressing multidrug resistant-KB-TAX50 cells after 72 hrs by methylene blue dye assay; assay type: functional, cell-based
KB [3] = experiment: Growth inhibition of human Pgp170 overexpressing multidrug resistant-KB-VIN10 cells after 72 hrs by methylene blue dye assay; assay type: functional, cell-based
NCI-H460 = experiment: Growth inhibition of human H460 cells after 72 hrs by methylene blue dye assay; assay type: functional, cell-based; conditions: NCI-H460, 72 h
KB [4] = experiment: Growth inhibition of human KB cells after 72 hrs by methylene blue dye assay; assay type: functional, cell-based
MKN-45 = experiment: Growth inhibition of human MKN45 cells after 72 hrs by methylene blue dye assay; assay type: functional, cell-based; conditions: MKN-45, 72 h
[5] = Displacement of [3H]colchicine from tubulin after 2 hrs at 5 uM
[6] = Inhibition of tubulin polymerization after 30 mins
HT-29 = experiment: Growth inhibition of human HT-29 cells after 72 hrs by methylene blue dye assay; assay type: functional, cell-based; conditions: HT-29, 72 h
[7] = Growth inhibition of human fibroblast Detrot 551 cells after 72 hrs by methylene blue dye assay; assay type: cell-based; conditions: Detrot 551, 72 h

| IC50 (KB [1]) [nM] | IC50 (KB [2]) [nM] | IC50 (KB [3]) [nM] | IC50 (NCI-H460) [nM] | IC50 (KB [4]) [nM] | IC50 (MKN-45) [nM] | Activity [5] [%] | IC50 [6] [nM] | IC50 (HT-29) [nM] | Structure (SMILES) | IC50 [7] [nM] |
| --- | --- | --- | --- | --- | --- | --- | --- | --- | --- | --- |
| 54000 | 3500 | 23000 |  |  |  |  |  |  | COc1cc([C@@H]2c3cc4c(cc3[C@@H](O[C@@H]3O[C@@H]5CO[C@@H](C)O[C@H]5[C@H](O)[C@H]3O)[C@H]3COC(=O)[C@H]23)OCO4)cc(OC)c1O [ETOPOSIDE] |  |
|  |  | 70 | 84 | 65 | 53 | 52 | 2700 | 144 | COc1ccc2c(C(=O)c3cc(OC)c(OC)c(OC)c3)c(OC)ccc2c1 |  |
|  |  | > 10000 | > 10000 | > 10000 | > 10000 |  |  | > 10000 | COc1ccc2c(O)c(C(=O)c3cc(OC)c(OC)c(OC)c3)ccc2c1 |  |
| 16.9 | 15 | 11 | 12.6 | 8.2 | 21 | 75 | 2600 | 26.3 | COc1ccc2c(C(=O)c3cc(OC)c(OC)c(OC)c3)c(O)ccc2c1 | > 1000 |
|  |  | 912 | 1210 | 1000 | 874 |  |  | 1130 | CCOc1ccc2cc(OC)ccc2c1C(=O)c1cc(OC)c(OC)c(OC)c1 |  |
| 7.9 | 273 | 16500 |  | 3.3 |  |  |  |  | CC(=O)O[C@H]1C(=O)[C@@]2(C)[C@H]([C@H](OC(=O)c3ccccc3)[C@]3(O)C[C@H](OC(=O)[C@H](O)[C@@H](NC(=O)c4ccccc4)c4ccccc4)C(C)=C1C3(C)C)[C@]1(OC(C)=O)CO[C@@H]1C[C@@H]2O [PACLITAXEL] |  |
|  |  | > 10000 | > 10000 | > 10000 | > 10000 |  |  | > 10000 | COc1ccc2c(OC)c(C(=O)c3cc(OC)c(OC)c(OC)c3)ccc2c1 |  |
|  |  | 364 | 416 | 381 | 338 |  |  | 512 | CNc1ccc2cc(OC)ccc2c1C(=O)c1cc(OC)c(OC)c(OC)c1 |  |
| 3.5 | 3.1 | 3.3 | 3.6 | 2.9 | 2.1 | 85 | 2400 | 15.4 | COc1ccc2c(C(=O)c3cc(OC)c(OC)c(OC)c3)c(N)ccc2c1 | > 1000 |
|  |  | 1100 | 987 | 1000 | 840 |  |  | 1320 | CCCc1ccc2cc(OC)ccc2c1C(=O)c1cc(OC)c(OC)c(OC)c1 |  |
| 1.2 | 17.6 | 90.1 |  | 0.4 |  |  |  |  | CC[C@]1(O)C[C@H]2CN(CCc3c([nH]c4ccccc34)[C@@](C(=O)OC)(c3cc4c(cc3OC)N(C=O)[C@H]3[C@@](O)(C(=O)OC)[C@H](OC(C)=O)[C@]5(CC)C=CCN6CC[C@]43[C@@H]65)C2)C1 [VINCRISTINE] |  |
|  |  | 263 | 321 | 276 | 254 | 67 | 2900 | 412 | COc1ccc2c(C(=O)c3cc(OC)c(OC)c(OC)c3)c(C)ccc2c1 |  |
|  |  | 512 | 764 | 600 | 320 |  |  | 667 | CCc1ccc2cc(OC)ccc2c1C(=O)c1cc(OC)c(OC)c(OC)c1 |  |
|  |  |  |  |  |  | 93 |  |  | COc1ccc(/C=C\c2cc(OC)c(OC)c(OC)c2)cc1O |  |
|  |  | 2430 | 2720 | 2600 | 1760 |  |  | 2850 | CCCOc1ccc2cc(OC)ccc2c1C(=O)c1cc(OC)c(OC)c(OC)c1 |  |
|  |  | 530 | 716 | 510 | 462 |  |  | 548 | COc1ccc2cc(C(=O)c3cc(OC)c(OC)c(OC)c3)ccc2c1 |  |
|  |  | > 10000 | > 10000 | > 10000 | > 10000 |  |  | > 10000 | COc1ccc2c(C(=O)c3cc(OC)c(OC)c(OC)c3)c(N(C)C)ccc2c1 |  |
|  |  | 7910 | > 10000 | 8800 | 7430 |  | > 10000 | 9850 | COc1ccc2c(N)c(C(=O)c3cc(OC)c(OC)c(OC)c3)ccc2c1 |  |
|  |  | 58 | 85.5 | 72.9 | 44.1 | 68 | 4300 | 69.4 | COc1ccc2c(C(=O)c3cc(OC)c(OC)c(OC)c3)cccc2c1 |  |
|  |  | 6.2 | 7.1 | 4.6 | 3.2 | 85 | 2800 | 5.9 | COc1ccc2c(C(=O)c3cc(OC)c(OC)c(OC)c3)c[nH]c2c1 |  |

| Structure (SMILES) | IC50 (KB [1]) [nM] | IC50 (KB [2]) [nM] | IC50 (KB [3]) [nM] | IC50 (NCI-H460) [nM] | IC50 (KB [4]) [nM] | IC50 (MKN-45) [nM] | Activity [5] [%] | IC50 [6] [nM] | IC50 (HT-29) [nM] | IC50 [7] [nM] |
| --- | --- | --- | --- | --- | --- | --- | --- | --- | --- | --- |
| COc1cc2c(c(OC)c1OC)-c1ccc(OC)c(=O)cc1[C@@H](NC(C)=O)CC2 [COLCHICINE] |  |  |  | 18 | 11 |  |  | 3200 | 10 |  |
